From ChEMBL document CHEMBL4715885, “Novel dual LSD1/HDAC6 inhibitors for the treatment of multiple myeloma” (Bioorg Med Chem Lett, 2021) come the findings set out here.

In series [1] the test system is MM1.S. Description: Antiproliferative activity against human MM1.S cells assessed as reduction in cell viability after 144 hrs. In kind it is functional, cell-based.
The nature of series [2]: Stability in human liver microsomes assessed as parent compound remaining measured after 30 mins. The class given is ADME, Microsome. Conditions: liver microsomes, read-out: Stabilty.
Series [3] in a line: Stability in mouse liver microsomes assessed as parent compound remaining measured after 30 mins. In kind it is ADME, Microsome. Conditions: liver microsomes, read-out: Stabilty. (Liver microsomes are vesicles of endoplasmic reticulum, rich in cytochrome P450 enzymes.)
Series [4] has as its target Histone deacetylase 1 (Homo sapiens) (UniProt Q13547). Nature of the series: Inhibition of human HDAC1 at 1uM using RHKKAc as substrate by fluorescence method relative to control.
In series [5] the target is Lysine-specific histone demethylase 1A (Homo sapiens, UniProt O60341). Description: Inhibition of LSD1 (unknown origin). Conditions: read-out: IC50.
Series [6] deals with T1, Protein deacetylase HDAC6 (Homo sapiens, UniProt Q9UBN7).
T1 sequence (Q9UBN7 whole entry): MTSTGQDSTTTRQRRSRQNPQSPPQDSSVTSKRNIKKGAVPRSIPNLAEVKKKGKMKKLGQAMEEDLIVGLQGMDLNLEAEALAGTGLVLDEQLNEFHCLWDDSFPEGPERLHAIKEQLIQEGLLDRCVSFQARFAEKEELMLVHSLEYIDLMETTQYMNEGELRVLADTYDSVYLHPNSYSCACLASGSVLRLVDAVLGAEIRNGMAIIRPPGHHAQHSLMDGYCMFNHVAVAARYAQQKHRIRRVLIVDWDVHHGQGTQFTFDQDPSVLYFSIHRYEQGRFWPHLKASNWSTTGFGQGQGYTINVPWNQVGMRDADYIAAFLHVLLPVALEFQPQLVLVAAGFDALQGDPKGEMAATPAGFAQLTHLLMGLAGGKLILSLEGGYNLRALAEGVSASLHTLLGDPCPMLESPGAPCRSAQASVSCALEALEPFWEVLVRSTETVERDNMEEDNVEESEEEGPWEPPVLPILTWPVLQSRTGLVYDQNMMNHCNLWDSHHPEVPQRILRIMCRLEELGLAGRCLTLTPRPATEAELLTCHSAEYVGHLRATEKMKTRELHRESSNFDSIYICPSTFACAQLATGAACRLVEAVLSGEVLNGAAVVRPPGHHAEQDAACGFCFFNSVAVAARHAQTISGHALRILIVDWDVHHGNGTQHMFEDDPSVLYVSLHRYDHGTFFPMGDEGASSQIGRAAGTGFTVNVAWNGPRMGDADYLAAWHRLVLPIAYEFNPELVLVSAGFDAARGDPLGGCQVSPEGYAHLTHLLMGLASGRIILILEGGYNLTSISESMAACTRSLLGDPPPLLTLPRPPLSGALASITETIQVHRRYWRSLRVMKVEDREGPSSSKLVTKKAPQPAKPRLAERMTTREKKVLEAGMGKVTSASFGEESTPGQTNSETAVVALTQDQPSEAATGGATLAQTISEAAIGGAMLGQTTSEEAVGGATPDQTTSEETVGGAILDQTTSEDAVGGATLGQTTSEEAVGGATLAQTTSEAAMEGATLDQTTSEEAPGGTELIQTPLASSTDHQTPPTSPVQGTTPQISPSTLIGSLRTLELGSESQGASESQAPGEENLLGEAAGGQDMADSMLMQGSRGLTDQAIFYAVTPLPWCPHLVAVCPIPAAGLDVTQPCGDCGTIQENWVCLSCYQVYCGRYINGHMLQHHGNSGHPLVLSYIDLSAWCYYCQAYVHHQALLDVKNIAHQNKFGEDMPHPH
Nature of the series: Inhibition of human HDAC6 (unknown origin) using RHKKAc as substrate by fluorescence method. Conditions: read-out: IC50.

Series [7] deals with MM1.S. Description: Antitumour activity against human MM1.S cells xenografted in SCID mouse assessed as tumour growth inhibition at 25 mg/kg, po for 12 days relative to control. The class given is functional. Conditions: 288 h, time 12 day, read-out: TGI. (Xenograft models place foreign cells or tissue in a host animal.)

Where only a bound is given, the exact number is not on record here.

Sequence of Histone deacetylase 1 (Homo sapiens) (Q13547 whole entry): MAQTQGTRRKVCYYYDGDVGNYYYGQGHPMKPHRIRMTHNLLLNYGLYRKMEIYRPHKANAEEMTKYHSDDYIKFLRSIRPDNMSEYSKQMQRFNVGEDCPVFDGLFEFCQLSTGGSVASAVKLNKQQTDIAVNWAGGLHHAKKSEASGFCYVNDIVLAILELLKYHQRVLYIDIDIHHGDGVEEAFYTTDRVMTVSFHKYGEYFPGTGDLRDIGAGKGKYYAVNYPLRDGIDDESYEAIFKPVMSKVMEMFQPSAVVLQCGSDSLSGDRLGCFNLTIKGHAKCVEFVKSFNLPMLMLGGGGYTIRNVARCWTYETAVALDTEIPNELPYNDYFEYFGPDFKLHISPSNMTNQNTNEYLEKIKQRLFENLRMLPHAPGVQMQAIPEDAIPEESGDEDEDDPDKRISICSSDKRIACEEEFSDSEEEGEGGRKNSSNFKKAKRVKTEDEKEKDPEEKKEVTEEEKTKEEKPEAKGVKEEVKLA

The EC50 is the midpoint of the concentration-response curve. Take `O=C(NO)c1ccc(CCCN2CCC(CN[C@H]3C[C@@H]3c3ccccc3)CC2)cc1` [listing 1 of 2 here]: the EC50 in the series on MM1.S [1] turned out to be 4 nM. Also, the remaining at 0.5 h is 51% in series [2] and 50% in series [3].
For orientation: inhibition means the change of the read-out against control, counted positive when it falls. Regarding `O=C(NO)c1ccc(CCCN2CCC(CN[C@@H]3C[C@H]3c3ccccc3)CC2)cc1`, in series [4], the inhibition is 57.6%. The EC50 in the series on MM1.S [1] came to 3 nM. Further, the remaining at 0.5 h was 38% in series [2] and 26% in series [3].
Turning to `O=C(NO)c1ccc(CCCN2CCC(CN[C@H]3C[C@@H]3c3ccccc3)CC2)cc1` [listing 2 of 2 here], the inhibition in series [4] came to 2.06%.
In general, IC50 refers to the concentration that inhibits the measured activity by half. Consider `O=C(NO)c1ccc(CCCN2CCC(CN[C@H]3C[C@@H]3c3ccc(OCc4ccc(F)cc4)cc3)CC2)cc1` (racemic), for which the IC50 in series [5] was found to be 4 nM; in series [6], 12 nM. Also, the inhibition in series [4] is -1.79%. The remaining at 0.5 h in series [2] is 79%; in series [3], 56%.
In the case of `COc1ccc([C@H]2C[C@@H]2NCC2CCN(CCCc3ccc(C(=O)NO)cc3)CC2)cc1` (racemic), the IC50 in series [5] was 6 nM; in series [6], 38 nM. Besides, the inhibition in series [4] was 46.7%. Besides, the remaining at 0.5 h came to 74% in series [2] and 91% in series [3].
`O=C(NO)c1ccc(CCCN2CCc3cc(CN[C@H]4C[C@@H]4c4ccc(F)cc4)ccc3C2)cc1` (racemic): the remaining at 0.5 h in series [2] stood at 72%; in series [3] it was 32%.
On to `COc1ccc([C@H]2C[C@@H]2NCc2cn3c(n2)CN(CCCc2ccc(C(=O)NO)cc2)CC3)cc1` (racemic), for which the values for the half-maximal inhibitory concentration (IC50) in series [5] and in series [6] were 1100 nM and 28 nM, respectively. For the same compound, the inhibition in series [4] amounted to 26.6%. For the same compound, the remaining at 0.5 h is 73% in series [2] and below 5% in series [3].
`N#Cc1ccc(-c2ccc([C@H]3C[C@@H]3NCC3CCN(CCCc4ccc(C(=O)NO)cc4)CC3)cc2)cc1` (racemic): the half-maximal inhibitory concentration (IC50) in series [5] worked out at 32 nM. Moreover, the results for the remaining at 0.5 h in series [2] and in series [3] were 76% and 75%, respectively.
On to `CN(CC1CCN(CCCc2ccc(C(=O)NO)cc2)CC1)[C@H]1C[C@@H]1c1ccccc1` (racemic), for which the IC50 in series [5] is 465 nM. The inhibition in series [4] came out at 8.37%. Besides, the EC50 in the series with MM1.S [1] worked out at 48 nM.
On to `O=C(NO)c1ccc(CCCN2CC(CN[C@H]3C[C@@H]3c3ccccc3)C2)cc1` (racemic), for which the 50% inhibitory concentration (IC50) in series [5] was found to be 29 nM; in series [6], 184 nM. Also, the inhibition in series [4] worked out at 0.7%. Moreover, the EC50 with MM1.S [1] was determined as 25 nM. For the same compound, the remaining at 0.5 h in series [2] is 84%; in series [3], below 5%.
With `O=C(NO)c1ccc(CCN2CCC(CN[C@H]3C[C@@H]3c3ccccc3)CC2)cc1` (racemic), the results for the IC50 in series [5] and in series [6] were 15 nM and 490 nM, respectively. For the same compound, the inhibition in series [4] is 50.7%. Also, the EC50 in the series on MM1.S [1] is 28 nM. Also, the figures for the remaining at 0.5 h in series [2] and in series [3] were 77% and 68%, respectively.
Take `O=C(NO)c1csc(CCCN2CCC(CN[C@H]3C[C@@H]3c3ccccc3)CC2)n1` (racemic): the results for the IC50 in series [5] and in series [6] were 26 nM and above 10000 nM, respectively. In addition, in series [4], the inhibition was -0.22%. For the same compound, the EC50 with MM1.S [1] was above 10000 nM. Moreover, the remaining at 0.5 h in series [2] came to 88%; in series [3], 95%.
In the case of `CN(C)CCNC(=O)c1ccc([C@H]2C[C@@H]2NCC2CCN(CCCc3ccc(C(=O)NO)cc3)CC2)cc1` (racemic), the IC50 in series [5] is 22 nM; in series [6] it was 130 nM. Further, in series [4], the inhibition was 58.1%. In addition, the remaining at 0.5 h in series [2] stood at 40%; in series [3] it was 36%.
As for `O=C(NO)c1ccc(CCCN2CCC(CN[C@H]3C[C@@H]3c3ccc(C(=O)N4CCOCC4)cc3)CC2)cc1` (racemic), the IC50 in series [5] amounted to 22 nM. The inhibition in series [4] was determined as 47.6%. Moreover, the remaining at 0.5 h in series [2] came out at 89%; in series [3], 82%.
Regarding `Cn1cc(-c2ccc([C@H]3C[C@@H]3NCC3CCN(CCCc4ccc(C(=O)NO)cc4)CC3)cc2)cn1` (racemic), the 50% inhibitory concentration (IC50) came out at 43 nM in series [5] and 66 nM in series [6]. Besides, in series [4], the inhibition came to 41.6%. Further, the concentration for a half-maximal effect (EC50) with MM1.S [1] turned out to be 7 nM. Moreover, the remaining at 0.5 h in series [2] turned out to be 77%; in series [3], 66%.
On to `Cc1noc(C)c1-c1ccc([C@H]2C[C@@H]2NCC2CCN(CCCc3ccc(C(=O)NO)cc3)CC2)cc1` (racemic), for which the half-maximal inhibitory concentration (IC50) in series [5] amounted to 59 nM; in series [6], 58 nM. Moreover, the inhibition in series [4] was found to be 35.4%. Moreover, in the series with MM1.S [1], the EC50 was 11 nM. For the same compound, the remaining at 0.5 h came out at 82% in series [2] and 77% in series [3].
Consider `O=C(NO)c1coc(CCCN2CCC(CN[C@H]3C[C@@H]3c3ccccc3)CC2)n1` (racemic), for which the half-maximal inhibitory concentration (IC50) was 26 nM in series [5] and above 10000 nM in series [6]. For the same compound, the inhibition in series [4] was determined as 6.85%. In the series with MM1.S [1], the EC50 was above 10000 nM. The figures for the remaining at 0.5 h in series [2] and in series [3] were 78% and 76%, respectively.
For `O=C(NO)c1ccc(CCCN2CCC(CN[C@H]3C[C@@H]3c3ccc(F)cc3)CC2)cc1` (racemic), the values for the IC50 in series [5] and in series [6] were 6 nM and 51 nM, respectively. Further, the inhibition in series [4] is 12.7%. In addition, the remaining at 0.5 h was determined as 54% in series [2] and 66% in series [3].
For `O=C(NO)c1ccc(CCCN2CCC(CN[C@H]3C[C@@H]3c3ccc(-c4ccc(Cl)cc4)cc3)CC2)cc1` (racemic), the 50% inhibitory concentration (IC50) was 2 nM in series [5] and 19 nM in series [6]. Moreover, the inhibition in series [4] came out at 23.6%. The values for the remaining at 0.5 h in series [2] and in series [3] were 77% and 81%, respectively.
On to `O=C(NO)c1ccc(CCCN2CCC(CN[C@H]3C[C@@H]3c3ccc(-c4ccc(F)cc4)cc3)CC2)cc1` (racemic), for which the figures for the IC50 in series [5] and in series [6] were 821 nM and 59 nM, respectively. In addition, the inhibition in series [4] stood at 9.74%. The remaining at 0.5 h is 92% in series [2] and 75% in series [3].
`O=C(NO)c1ccc(CCCN2CCC(CN[C@H]3C[C@@H]3c3ccc(C(=O)N4CCCCC4)cc3)CC2)cc1` (racemic): in series [5], the IC50 is 23 nM. Further, in series [4], the inhibition amounted to 53.9%. Also, the remaining at 0.5 h in series [2] was 65%; in series [3] it was 72%.
Consider `O=C(NO)c1ccc(CN2CCC(CN[C@H]3C[C@@H]3c3ccccc3)CC2)cc1` (racemic), for which the inhibition in series [4] amounted to 12.9%. The remaining at 0.5 h stood at 63% in series [2] and 53% in series [3].
Regarding `O=C(NO)c1ccc(CCCN2CCC(CN[C@H]3C[C@@H]3c3ccc(-c4ccc(C(F)(F)F)nc4)cc3)CC2)cc1` (racemic), the figures for the 50% inhibitory concentration (IC50) in series [5] and in series [6] were 19 nM and 100 nM, respectively. In addition, in series [4], the inhibition was 33.5%. The remaining at 0.5 h in series [2] was 79%; in series [3] it was 85%.
With `Cn1ccc(-c2ccc([C@H]3C[C@@H]3NCC3CCN(CCCc4ccc(C(=O)NO)cc4)CC3)cc2)cc1=O` (racemic), the figures for the concentration for half-maximal inhibition (IC50) in series [5] and in series [6] were 21 nM and 46 nM, respectively. Moreover, the inhibition in series [4] was determined as 59.4%. The remaining at 0.5 h in series [2] was found to be 73%; in series [3] it was 72%.
`O=C(NO)c1cnc(CCCN2CCC(CN[C@H]3C[C@@H]3c3ccccc3)CC2)s1` (racemic): the results for the IC50 in series [5] and in series [6] were 22 nM and 517 nM, respectively. In addition, the inhibition in series [4] turned out to be 10.7%. In addition, the EC50 in the series on MM1.S [1] worked out at 63 nM. The figures for the remaining at 0.5 h in series [2] and in series [3] were 90% and 87%, respectively.
With `O=C(O)c1ccc(CCCN2CCC(CN[C@H]3C[C@@H]3c3ccccc3)CC2)cc1` (racemic), the half-maximal inhibitory concentration (IC50) in series [6] is above 10000 nM. Further, the inhibition in series [4] is 8.36%. Also, the EC50 in the series with MM1.S [1] is above 10000 nM. Besides, the remaining at 0.5 h in series [2] is 63%; in series [3], 80%.
`O=C(O)c1ccc(CN2CCC(CN[C@@H]3C[C@H]3c3ccccc3)CC2)cc1` [GSK2879552]: the inhibition in vivo at 25 mg/kg with MM1.S [7] turned out to be 40%.
